According to patent publication US9050378B2, “N2S2 chelate-targeting ligand conjugates” (Board of Regents, The University of Texas System, priority 2003, dated 2015):

Experiments:
[1] = system: A549 human lung cancer tumor; experiment: Tissue distribution in lung tumor-bearing nude mice; format: in vivo
Description: Female athymic nude mice (NCr-nu/nu, NCI, Bethasda, Md.) were inoculated with human lung cancer cells (A549 tumor cell line, 3×10^6 cells/mouse, intramuscular) by one author in the mid-dorsal region. After the tumor reached 6 mm, separate biodistribution studies using ^99mTc-EC-DG and 18F-FDG were conducted. Each received ^99mTc-EC-DG or 18F-FDG intravenously (n=3/time point). The injection activity was 1-3 μCi/mouse. The injected mass of ^99mTc-EC-DG was 0.2 mg/rodent.

[2] = system: RBA CRL-1747 mammary tumor; experiment: Biodistribution in breast (mammary) tumor-bearing rats; format: in vivo, rat; details: Table 2
Description: Biodistribution was assessed in mammary tumor-bearing rats (RBA CRL-1747, n=3/time interval, iv). Studies were performed 14 to 17 days after implantation when tumors reached approximately 1 cm in diameter. Following administration of the radiotracer, rats were sacrificed at 0.5-4 hrs. The selected tissues were excised, weighed and counted for radioactivity by using a gamma counter (Packard Instruments, Downers Grove, Ill.). The biodistribution of tracer in each sample was calculated as percentage of the injected dose per gram of tissue wet weight (% ID/g).
Biodistribution was assessed in breast tumor-bearing rats (RBA CRL-1747, n=3/time interval, iv). Studies were performed 14 to 17 days after implantation when tumors reached approximately 1 cm in diameter. Following administration of the radiotracer, rats were sacrificed at 0.5-4 hrs. The selected tissues were excised, weighed and counted for radioactivity by using a gamma counter (Packard Instruments, Downers Grove, Ill.). The biodistribution of tracer in each sample was calculated as percentage of the injected dose per gram of tissue wet weight (% ID/g).

RBA CRL-1747 = experiment: In vitro cellular uptake and blocking of ^99mTc-EC-angiostatin with unlabeled angiostatin; format: cell-based, rat; details: unlabeled angiostatin 0-200 μM, RBA CRL-1747, 2 hours; read-out: IC-50 of angiostatin (inhibition of ^99mTc-EC-angiostatin uptake)
Description: The IC-50 of angiostatin was 176 μM (R^2=0.998) (FIG. 3).

Compound: OC[C@H]1OC(O)[C@H]([18F])[C@@H](O)[C@@H]1O (stereo partly drawn) [^18FDG, [^18F]fluorodeoxyglucose, reference compound]
- Blood ([1]; 30 min): 0.793 ± 0.067 % of injected dose per gram of tissue weight
- Brain ([1]; 30 min): 6.557 ± 0.390 % of injected dose per gram of tissue weight
- Heart ([1]; 30 min): 11.94 ± 2.571 % of injected dose per gram of tissue weight
- Intestine ([1]; 30 min): 2.322 ± 0.542 % of injected dose per gram of tissue weight
- Kidney ([1]; 30 min): 1.137 ± 0.117 % of injected dose per gram of tissue weight
- Liver ([1]; 30 min): 1.051 ± 0.057 % of injected dose per gram of tissue weight
- Lung ([1]; 30 min): 2.490 ± 0.209 % of injected dose per gram of tissue weight
- Muscle ([1]; 30 min): 4.876 ± 0.621 % of injected dose per gram of tissue weight
- Spleen ([1]; 30 min): 1.824 ± 0.196 % of injected dose per gram of tissue weight
- Stomach ([1]; 30 min): 5.046 ± 0.461 % of injected dose per gram of tissue weight
- Thyroid ([1]; 30 min): 4.490 ± 0.526 % of injected dose per gram of tissue weight
- Tumor ([1]; 30 min): 2.226 ± 0.150 % of injected dose per gram of tissue weight
- Tumor/Blood ([1]; 30 min): 2.821 ± 0.144
- Tumor/Lung ([1]; 30 min): 0.912 ± 0.119
- Tumor/Muscle ([1]; 30 min): 0.463 ± 0.026
- Blood ([1]; 2 h): 0.236 ± 0.009 % of injected dose per gram of tissue weight
- Brain ([1]; 2 h): 3.113 ± 0.132 % of injected dose per gram of tissue weight
- Heart ([1]; 2 h): 20.33 ± 7.675 % of injected dose per gram of tissue weight
- Intestine ([1]; 2 h): 2.764 ± 0.496 % of injected dose per gram of tissue weight
- Kidney ([1]; 2 h): 0.553 ± 0.104 % of injected dose per gram of tissue weight
- Liver ([1]; 2 h): 0.586 ± 0.040 % of injected dose per gram of tissue weight
- Lung ([1]; 2 h): 2.222 ± 0.137 % of injected dose per gram of tissue weight
- Muscle ([1]; 2 h): 5.409 ± 0.611 % of injected dose per gram of tissue weight
- Spleen ([1]; 2 h): 1.903 ± 0.144 % of injected dose per gram of tissue weight
- Stomach ([1]; 2 h): 4.374 ± 0.864 % of injected dose per gram of tissue weight
- Thyroid ([1]; 2 h): 4.617 ± 0.400 % of injected dose per gram of tissue weight
- Tumor ([1]; 2 h): 1.699 ± 0.172 % of injected dose per gram of tissue weight
- Tumor/Blood ([1]; 2 h): 7.261 ± 1.007
- Tumor/Lung ([1]; 2 h): 0.775 ± 0.113
- Tumor/Muscle ([1]; 2 h): 0.319 ± 0.031
- Blood ([1]; 4 h): 0.203 ± 0.062 % of injected dose per gram of tissue weight
- Brain ([1]; 4 h): 2.065 ± 0.080 % of injected dose per gram of tissue weight
- Heart ([1]; 4 h): 19.35 ± 8.286 % of injected dose per gram of tissue weight
- Intestine ([1]; 4 h): 1.562 ± 0.342 % of injected dose per gram of tissue weight
- Kidney ([1]; 4 h): 0.568 ± 0.027 % of injected dose per gram of tissue weight
- Liver ([1]; 4 h): 0.785 ± 0.039 % of injected dose per gram of tissue weight
- Lung ([1]; 4 h): 2.280 ± 0.182 % of injected dose per gram of tissue weight
- Muscle ([1]; 4 h): 4.743 ± 0.610 % of injected dose per gram of tissue weight
- Spleen ([1]; 4 h): 1.591 ± 0.161 % of injected dose per gram of tissue weight
- Stomach ([1]; 4 h): 2.278 ± 0.455 % of injected dose per gram of tissue weight
- Thyroid ([1]; 4 h): 4.424 ± 0.442 % of injected dose per gram of tissue weight
- Tumor ([1]; 4 h): 1.606 ± 0.182 % of injected dose per gram of tissue weight
- Tumor/Blood ([1]; 4 h): 8.932 ± 1.973
- Tumor/Lung ([1]; 4 h): 0.717 ± 0.106
- Tumor/Muscle ([1]; 4 h): 0.346 ± 0.048
- tumor-to-tissue ratios, ^99mTc-EC-DG versus 18F-FDG ([1]; A549 nude mice, iv): higher tumor/blood ratios

Compound: O=C([O-])[C@H](C[S-])NCCN[C@@H](CS)C(=O)[O-].[O]=[Tc+3] [^99mTc-EC, ^99mTc-L,L-ethylenedicysteine, reference compound]
- Blood ([2]; 1 Hour): 0.273 ± 0.039 % ID/g
- Intestine ([2]; 1 Hour): 0.787 ± 0.106 % ID/g
- Kidney ([2]; 1 Hour): 8.991 ± 0.268 % ID/g
- Liver ([2]; 1 Hour): 0.367 ± 0.006 % ID/g
- Lung ([2]; 1 Hour): 0.187 ± 0.029 % ID/g
- Muscle ([2]; 1 Hour): 0.043 ± 0.002 % ID/g
- Stomach ([2]; 1 Hour): 0.127 ± 0.106 % ID/g
- Thyroid ([2]; 1 Hour): 0.229 ± 0.118 % ID/g
- Tumor ([2]; 1 Hour): 0.149 ± 0.020 % ID/g
- Tumor/Blood ([2]; 1 Hour): 0.544 ± 0.004
- Tumor/Lung ([2]; 1 Hour): 0.797 ± 0.022
- Tumor/Muscle ([2]; 1 Hour): 3.414 ± 0.325
- Urine ([2]; 1 Hour): 11.045 ± 6.158 % ID/g
- Blood ([2]; 2 Hour): 0.211 ± 0.001 % ID/g
- Intestine ([2]; 2 Hour): 0.401 ± 0.093 % ID/g
- Kidney ([2]; 2 Hour): 9.116 ± 0.053 % ID/g
- Liver ([2]; 2 Hour): 0.286 ± 0.073 % ID/g
- Lung ([2]; 2 Hour): 0.144 ± 0.002 % ID/g
- Muscle ([2]; 2 Hour): 0.028 ± 0.009 % ID/g
- Stomach ([2]; 2 Hour): 0.037 ± 0.027 % ID/g
- Thyroid ([2]; 2 Hour): 0.106 ± 0.003 % ID/g
- Tumor ([2]; 2 Hour): 0.115 ± 0.002 % ID/g
- Tumor/Blood ([2]; 2 Hour): 0.546 ± 0.010
- Tumor/Lung ([2]; 2 Hour): 0.797 ± 0.002
- Tumor/Muscle ([2]; 2 Hour): 4.425 ± 1.397
- Urine ([2]; 2 Hour): 13.192 ± 4.505 % ID/g
- Blood ([2]; 4 Hour): 0.149 ± 0.008 % ID/g
- Intestine ([2]; 4 Hour): 0.103 ± 0.009 % ID/g
- Kidney ([2]; 4 Hour): 7.834 ± 1.018 % ID/g
- Liver ([2]; 4 Hour): 0.234 ± 0.016 % ID/g
- Lung ([2]; 4 Hour): 0.120 ± 0.012 % ID/g
- Muscle ([2]; 4 Hour): 0.019 ± 0.001 % ID/g
- Stomach ([2]; 4 Hour): 0.043 ± 0.014 % ID/g
- Thyroid ([2]; 4 Hour): 0.082 ± 0.005 % ID/g
- Tumor ([2]; 4 Hour): 0.096 ± 0.005 % ID/g
- Tumor/Blood ([2]; 4 Hour): 0.649 ± 0.005
- Tumor/Lung ([2]; 4 Hour): 0.798 ± 0.007
- Tumor/Muscle ([2]; 4 Hour): 5.093 ± 0.223
- Urine ([2]; 4 Hour): 8.693 ± 2.981 % ID/g
- Blood ([2]; 30 Min.): 0.435 ± 0.29 % ID/g
- Intestine ([2]; 30 Min.): 0.173 ± 0.029 % ID/g
- Kidney ([2]; 30 Min.): 7.914 ± 0.896 % ID/g
- Liver ([2]; 30 Min.): 0.508 ± 0.062 % ID/g
- Lung ([2]; 30 Min.): 0.272 ± 0.019 % ID/g
- Muscle ([2]; 30 Min.): 0.060 ± 0.006 % ID/g
- Stomach ([2]; 30 Min.): 0.136 ± 0.060 % ID/g
- Thyroid ([2]; 30 Min.): 0.219 ± 0.036 % ID/g
- Tumor ([2]; 30 Min.): 0.342 ± 0.163 % ID/g
- Tumor/Blood ([2]; 30 Min.): 0.776 ± 0.322
- Tumor/Lung ([2]; 30 Min.): 1.256 ± 0.430
- Tumor/Muscle ([2]; 30 Min.): 5.841 ± 3.253
- Urine ([2]; 30 Min.): 9.124 ± 0.808 % ID/g

Compound: angiostatin
- IC50 (RBA CRL-1747): 176 µM
